The values that follow come from ChEMBL document CHEMBL4420072, “Method for screening anti-cancer compounds inhibiting function of TM4SF5 and anti-cancer composition containing chalcone compounds” (2013).

Values after ≈ are worked out from the molar mass of the structure shown. Active and inactive are the calls of the source. The rule behind the calls is not given here.

Data set [1] has as its target T1, Transmembrane 4 L6 family member 5 (Homo sapiens) (UniProt O14894).
T1 sequence (whole entry): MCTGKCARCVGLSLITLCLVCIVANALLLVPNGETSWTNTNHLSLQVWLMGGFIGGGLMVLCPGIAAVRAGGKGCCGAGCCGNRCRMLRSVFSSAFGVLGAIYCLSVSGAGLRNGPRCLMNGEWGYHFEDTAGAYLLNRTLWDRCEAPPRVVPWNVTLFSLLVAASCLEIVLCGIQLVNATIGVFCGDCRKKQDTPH
Nature of the data set: Inhibition of TM4SF5 in human SNU449Tp cells assessed as effect on cell morphology at 20 uM incubated for 24 hrs by optical microscopy. It is filed as cell-based.

Data set [2] has as its target T1, Transmembrane 4 L6 family member 5 (Homo sapiens). Nature of the data set: Activation of TM4SF5 in human SNU449Tp cells in monolayer arrangement assessed as stimulation of cell growth at 20 uM incubated for 24 hrs by optical microscopy. It is filed as cell-based.
The target is the same in data set [3]. Nature of the data set: Activation of TM4SF5 in human SNU449Tp cells in monolayer arrangement assessed as effect on cell morphology at 20 uM incubated for 24 hrs by optical microscopy. The class given is cell-based.
Data set [4] has the same target. Nature of the data set: Activation of TM4SF5 in human SNU449Tp cells in multilayer arrangement assessed as stimulation of cell growth at 20 uM incubated for 24 hrs by optical microscopy. The class given is cell-based.
Data set [5] shares this target. Briefly: Inhibition of TM4SF5 in human SNU449Tp cells assessed as reduction in cell invasion into Matrigel gel matrix at 20 uM incubated for 24 hrs. The class given is cell-based.
The target is the same in data set [6]. Briefly: Inhibition of TM4SF5 in human SNU449Tp cells assessed as reduction in alpha-SMA expression by Western blotting analysis. The class given is cell-based.
The target is the same in data set [7]. Briefly: Inhibition of TM4SF5 in human SNU449Tp cells assessed as reduction in p27Kip1 expression by Western blotting analysis. It is filed as cell-based. For orientation: A western blot detects proteins with antibodies after separation by electrophoresis.
For data set [8] the target is unchanged. Briefly: Inhibition of TM4SF5 in human SNU449Tp cells assessed as reduction in cell invasion into collagen gel matrix at 20 uM incubated for 18 hrs. The class given is cell-based.
The nature of data set [9]: Growth inhibition of TM4SF5 deficient human SNU449Cp cells assessed as reduction in cell number at 5 to 40 uM incubated up to 2 days. To be noted: 48 h.
The target of data set [10] is T1, Transmembrane 4 L6 family member 5 (Homo sapiens). Nature of the data set: Inhibition of TM4SF5 in human SNU449Tp cells assessed as increase in sensitivity of N-linked glycosylated region of TM4SF5 to PNGase F. It is filed as cell-based.
Data set [11] has the same target. Nature of the data set: Inhibition of TM4SF5 in human SNU449Tp cells assessed as inhibition of S-phase progression at 20 uM followed by BrdU addition and incubated for 24 hrs by immunofluorescent staining. The class given is cell-based.
The target is the same in data set [12]. Briefly: Inhibition of TM4SF5 in human SNU449Tp cells assessed as reduction in MMP2 activity gel at 20 uM incubated for 24 hrs followed by medium exchange with serum-free medium and further incubated for 18 hrs by zymography. The class given is cell-based.
For a further data set, the system named is SNU-398. Briefly: Growth inhibition of TM4SF5 deficient human SNU398 cells assessed as reduction in cell number at 1 to 20 ug/ml incubated up to 3 days. The class given is cell-based. As to conditions: snu-398, 72 h.
Data set [13] has as its target T1, Transmembrane 4 L6 family member 5 (Homo sapiens). Nature of the data set: Inhibition of TM4SF5 in human SNU449Tp cells assessed as restoration of reduced RhoA activity. It is filed as cell-based.
Data set [14] shares this target. Briefly: Inhibition of TM4SF5 in human SNU449Tp cells assessed as reduction in MMP9 activity gel at 20 uM incubated for 24 hrs followed by medium exchange with serum-free medium and further incubated for 18 hrs by zymography. It is filed as cell-based.
Data set [15] shares this target. Briefly: Inhibition of TM4SF5 in human HepG2 cells assessed as reduction in cell number at 1 to 20 ug/ml incubated up to 3 days. It is filed as cell-based.
For data set [16] the target is unchanged. Nature of the data set: Inhibition of TM4SF5 in human HuH7 cells assessed as reduction in cell number at 1 to 20 ug/ml incubated up to 3 days. It is filed as cell-based.
For data set [17] the target is unchanged. Briefly: Inhibition of TM4SF5 in human SNU449Tp cells assessed as reduction in pS10 p27Kip1 expression by Western blotting analysis. It is filed as cell-based.
Data set [18] shares this target. Briefly: Inhibition of TM4SF5 in human SNU368 cells assessed as reduction in cell number at 1 to 20 ug/ml incubated up to 3 days. It is filed as cell-based.
Data set [19] has the same target. Nature of the data set: Inhibition of TM4SF5 in human SNU449Tp cells assessed as reduction in pY77 FAK expression by Western blotting analysis. The class given is cell-based.
For data set [20] the target is unchanged. Nature of the data set: Inhibition of TM4SF5 in human SNU449Tp cells assessed as restoration of cell-cell contact at 20 uM by E-cadherin and beta-catenin detection based immunofluorescent staining.
Data set [21] has the same target. Nature of the data set: Inhibition of TM4SF5 in human SNU449Tp cells assessed as induction of return of elongated cell shape to polygonal shape by DAPI staining based assay.
Data set [22] shares this target. Nature of the data set: Inhibition of TM4SF5 in human SNU449Tp cells assessed as reduction in cell migration at 20 uM incubated for 18 hrs by Transwell chamber based assay.
For data set [23] the target is unchanged. Nature of the data set: Inhibition of TM4SF5 in human SNU449Tp cells assessed as reduction in cytosolic p27Kip1 expression by immunofluorescent staining. The class given is cell-based.
A further data set deals with HCT-15. Nature of the data set: Cytotoxicity against human HCT15 cells assessed as reduction in cell viability by SRB assay. It is filed as functional. As to conditions: read-out: ED50 (the source's name). (In SRB staining, fixed cells bind dye roughly in proportion to their protein.)
The next data set relates to PC-3. Nature of the data set: Cytotoxicity against human PC3 cells assessed as reduction in cell viability by SRB assay. It is filed as functional. To be noted: read-out: ED50 (the source's name).
For the next data set, the system named is A549. Nature of the data set: Cytotoxicity against human A549 cells assessed as reduction in cell viability by SRB assay. The class given is functional. As to conditions: read-out: ED50 (the source's name).

As to `COc1ccc(C(=O)/C=C/c2ccc(O)cc2)cc1`, the “cell morphology effect (active/not active)” value in [1] is “inactive”. Further, the result in data set [2] and in [3] was Active. Moreover, the result in [4] was inactive.
For the molecule `Cc1ccc(S(=O)(=O)Nc2ccc(C(=O)/C=C/c3ccc(O)cc3)cc2)cc1`, the inhibition result in data set [5], in [6], in [7], in [8], in data set [10] and in [11] was “Active” each time. Further, the inhibition entry in data set [12], in data set [13], in data set [14], in [15], in data set [16] and in [17] was “Active” in each case. Besides, the inhibition result in data set [18], in data set [19], in data set [20], in data set [21], in [22] and in [23] was “Active” in each case. Further, the “growth inhibition (GI)” value (in data set [9]; in the data set with SNU-398) was “Non-Toxic” in each case. Moreover, the “cell morphology effect (active/not active)” value in data set [1] is “Active”.
On to `O=C(/C=C/c1ccc(O)cc1)c1ccc(O)cc1`, for which the “cell morphology effect (active/not active)” value in [1] was “inactive”. For the same molecule, the outcome in data set [2] and in data set [3] was Active. In addition, the result in [4] was inactive.
As to `O=C(/C=C/c1ccc(O)c(O)c1)c1ccc(OS(=O)(=O)c2cccc(F)c2)cc1`, the EC50 is 7 µg/mL (≈ 16.9 µM) with HCT-15 and 8 µg/mL (≈ 19.3 µM) in the data set with PC-3.
Consider `Nc1ccc(C(=O)/C=C/c2ccc(O)cc2)cc1`, for which, in data set [1], the “cell morphology effect (active/not active)” value was “inactive”. Also, the result in data set [2] and in [3] was Active. The outcome in data set [4] was inactive.
For the molecule `Cc1ccc(S(=O)(=O)Oc2ccc(C(=O)/C=C/c3ccc(O)cc3O)cc2)cc1`, the EC50 in the data set on HCT-15 worked out at 8 µg/mL (≈ 19.5 µM); in the data set with A549, 10 µg/mL (≈ 24.4 µM).
